Reference: patent US20100041089A1, “IMPROVED METHOD FOR DETECTING CHEMICAL […]” (priority 2006, published 2010)

Tested on: yeast genes (expressed mRNA)
Assay: DNA chip measurement of expressed mRNA of yeast genes after culture with a toxic chemical substance
Format: cell-based, Saccharomyces cerevisiae S288C
Experimental: Yeast (Saccharomyces cerevisiae S288C (a SUC2mal mel gap2 CUP1)) were cultured at 25° C. on YPD medium (yeast extract 1%, polypeptone 2%, glucose 2%). One of toxic chemical substances was added to the cell at logarithmic growth phase, and the cell was further cultured for two hours. Cell was cultured without any chemical substance in the same condition, and was used as a control. Concentrations of the chemical substances were defined to inhibit the growth of the yeast but not lead to death.
After the completion of cultivation, the culture was centrifuged to collect the cells. To the cells, sodium acetate buffer (50 mM sodium acetate, 10 mM EDTA, 1% SDS) was added, and the mixture was shaken at 65° C. for five minutes, followed by returning to room temperature, and obtaining the supernatant, which procedure was repeated two times. To the supernatant, ½ amount of a solution of phenol/chloroform (1:1) was added, and the mixture was centrifuged to give a supernatant, an equal amount of chloroform was added, and the mixture was centrifuged to give a supernatant. To the supernatant, an equal amount of isopropanol containing 0.3 M sodium acetate was added, and the mixture was allowed to stand at room temperature for 30 minutes, after which the mixture was centrifuged to give sediment of the whole RNAs. Seventy % ethanol was added to the sediment, and the mixture was again centrifuged to give sediment, which was then dried and dissolved in water. mRNA was isolated from the whole RNAs as followings. In view of the fact that a poly A chain is attached to the 3′ terminus of mRNA, a polynucleotide having a poly T structure which was immobilized on the surface of latex beads was used to trap the mRNA, and then the mRNA was washed and eluted with spine column (Oligotex-dT30<Super>mRNA Purification Kit, Takara). Reverse transcription of the mRNA was conducted with a reverse transcriptase (Super Script II Reverse Transcriptase; catalogue No. 18064-014, GibcoBRL) using fluorescence-labeled nucleotides to give cDNAs that were introduced with Cy3-dUTP or Cy5-dUTP during the reverse transcription.
The labeled cDNAs were dissolved in TE buffer (10 mM Tris-HCl/1 mM EDTA, pH 8.0), and the solution was dropped on the DNA chip containing the whole genes of yeast (DNA Chip Research Inc. Japan) so that the cDNAs were hybridized on the DNA chip at 65° C. for over 12 hours. The fluoresces intensity of the DNA chip was read with a scanner, and the ratio relative to the fluorescence intensity resulting from the absence of chemical substance was estimated as the following, which is shown in Tables 1 to 9.
In the Tables, “Intensity” indicated in the rightmost column is a value of the level of expressed mRNA of each gene in control cells as divided by the average level of the expressions of the whole genes. A gene of which mRNA level is lower in control, and is higher in cases of addition of chemical substance, is especially useful in the detection of toxic substances.
Here, when a ratio of an amount of mRNA expressed in the presence of the chemical substance to an amount of mRNA expressed in the absence of the chemical substance is two or more, then it is considered significant.

Structure (SMILES): O=[N+]([O-])c1cc[n+]([O-])c2ccccc12 [(5), 4-Nitroquinoline-N-oxide]
- The level of expressed mRNA in the presence of chemical substance/The level of expressed mRNA in the absence of chemical substance (yeast gene YKL086W, cultured two hours with substance): 0.8
- The level of expressed mRNA in the presence of chemical substance/The level of expressed mRNA in the absence of chemical substance (yeast gene YKL139W): 2.8
- The level of expressed mRNA in the presence of chemical substance/The level of expressed mRNA in the absence of chemical substance (yeast gene YKL151C, cultured two hours with substance): 1.0
- The level of expressed mRNA in the presence of chemical substance/The level of expressed mRNA in the absence of chemical substance (yeast gene YKL153W, cultured two hours with substance): 1.0
- The level of expressed mRNA in the presence of chemical substance/The level of expressed mRNA in the absence of chemical substance (yeast gene YKL195W, cultured two hours with substance): 1.9
- The level of expressed mRNA in the presence of chemical substance/The level of expressed mRNA in the absence of chemical substance (yeast gene YKR091W, cultured two hours with substance): 1.6
- The level of expressed mRNA in the presence of chemical substance/The level of expressed mRNA in the absence of chemical substance (yeast gene YLR054C, cultured two hours with substance): 1.3
- The level of expressed mRNA in the presence of chemical substance/The level of expressed mRNA in the absence of chemical substance (yeast gene YLR149C, cultured two hours with substance): 0.8
- The level of expressed mRNA in the presence of chemical substance/The level of expressed mRNA in the absence of chemical substance (yeast gene YLR152C, cultured two hours with substance): 1.1
- The level of expressed mRNA in the presence of chemical substance/The level of expressed mRNA in the absence of chemical substance (yeast gene YLR194C, cultured two hours with substance): 1.0
- The level of expressed mRNA in the presence of chemical substance/The level of expressed mRNA in the absence of chemical substance (yeast gene YLR324W, cultured two hours with substance): 1.3
- The level of expressed mRNA in the presence of chemical substance/The level of expressed mRNA in the absence of chemical substance (yeast gene YLR350W, cultured two hours with substance): 0.8
- The level of expressed mRNA in the presence of chemical substance/The level of expressed mRNA in the absence of chemical substance (yeast gene YLR387C, cultured two hours with substance): 1.3
- The level of expressed mRNA in the presence of chemical substance/The level of expressed mRNA in the absence of chemical substance (yeast gene YLR388W): 2.5
- The level of expressed mRNA in the presence of chemical substance/The level of expressed mRNA in the absence of chemical substance (yeast gene YLR460C, cultured two hours with substance): 1.3
- The level of expressed mRNA in the presence of chemical substance/The level of expressed mRNA in the absence of chemical substance (yeast gene YML107C, cultured two hours with the substance): 2.2
- The level of expressed mRNA in the presence of chemical substance/The level of expressed mRNA in the absence of chemical substance (yeast gene YML117W, cultured two hours with substance): 0.8
- The level of expressed mRNA in the presence of chemical substance/The level of expressed mRNA in the absence of chemical substance (yeast gene YMR009W, cultured two hours with substance): 1.9
- The level of expressed mRNA in the presence of chemical substance/The level of expressed mRNA in the absence of chemical substance (yeast gene YMR067C, cultured two hours with substance): 1.1
- The level of expressed mRNA in the presence of chemical substance/The level of expressed mRNA in the absence of chemical substance (yeast gene YMR090W, cultured two hours with substance): 0.7
- The level of expressed mRNA in the presence of chemical substance/The level of expressed mRNA in the absence of chemical substance (yeast gene YMR095C, cultured two hours with substance): 0.9
- The level of expressed mRNA in the presence of chemical substance/The level of expressed mRNA in the absence of chemical substance (yeast gene YMR097C, cultured two hours with substance): 0.7
- The level of expressed mRNA in the presence of chemical substance/The level of expressed mRNA in the absence of chemical substance (yeast gene YMR102C, cultured two hours with substance): 1.2
- The level of expressed mRNA in the presence of chemical substance/The level of expressed mRNA in the absence of chemical substance (yeast gene YMR107W, cultured two hours with substance): 1.1
- The level of expressed mRNA in the presence of chemical substance/The level of expressed mRNA in the absence of chemical substance (yeast gene YMR180C, cultured two hours with substance): 1.0
- The level of expressed mRNA in the presence of chemical substance/The level of expressed mRNA in the absence of chemical substance (yeast gene YMR184W, cultured two hours with substance): 0.8
- The level of expressed mRNA in the presence of chemical substance/The level of expressed mRNA in the absence of chemical substance (yeast gene YMR191W, cultured two hours with substance): 1.5
- The level of expressed mRNA in the presence of chemical substance/The level of expressed mRNA in the absence of chemical substance (yeast gene YMR295C, cultured two hours with substance): 1.4
- The level of expressed mRNA in the presence of chemical substance/The level of expressed mRNA in the absence of chemical substance (yeast gene YMR316W, cultured two hours with substance): 1.1
- The level of expressed mRNA in the presence of chemical substance/The level of expressed mRNA in the absence of chemical substance (yeast gene YNL044W, cultured two hours with substance): 1.2
- The level of expressed mRNA in the presence of chemical substance/The level of expressed mRNA in the absence of chemical substance (yeast gene YNL074C, cultured two hours with substance): 1.3
- The level of expressed mRNA in the presence of chemical substance/The level of expressed mRNA in the absence of chemical substance (yeast gene YNL092W, cultured two hours with substance): 0.9
- The level of expressed mRNA in the presence of chemical substance/The level of expressed mRNA in the absence of chemical substance (yeast gene YNL115C, cultured two hours with substance): 0.8
- The level of expressed mRNA in the presence of chemical substance/The level of expressed mRNA in the absence of chemical substance (yeast gene YNL156C, cultured two hours with substance): 1.6
- The level of expressed mRNA in the presence of chemical substance/The level of expressed mRNA in the absence of chemical substance (yeast gene YNL217W, cultured two hours with the substance): 2.1
- The level of expressed mRNA in the presence of chemical substance/The level of expressed mRNA in the absence of chemical substance (yeast gene YNL234W, cultured two hours with substance): 1.7
- The level of expressed mRNA in the presence of chemical substance/The level of expressed mRNA in the absence of chemical substance (yeast gene YNL281W, cultured two hours with substance): 1.7
- The level of expressed mRNA in the presence of chemical substance/The level of expressed mRNA in the absence of chemical substance (yeast gene YNL305C, cultured two hours with substance): 1.3
- The level of expressed mRNA in the presence of chemical substance/The level of expressed mRNA in the absence of chemical substance (yeast gene YNR068C, cultured two hours with substance): 1.7
- The level of expressed mRNA in the presence of chemical substance/The level of expressed mRNA in the absence of chemical substance (yeast gene YOL032W, cultured two hours with substance): 1.4
- The level of expressed mRNA in the presence of chemical substance/The level of expressed mRNA in the absence of chemical substance (yeast gene YOL036W, cultured two hours with substance): 1.2
- The level of expressed mRNA in the presence of chemical substance/The level of expressed mRNA in the absence of chemical substance (yeast gene YOL047C, cultured two hours with substance): 1.4
- The level of expressed mRNA in the presence of chemical substance/The level of expressed mRNA in the absence of chemical substance (yeast gene YOL071W, cultured two hours with substance): 0.9
- The level of expressed mRNA in the presence of chemical substance/The level of expressed mRNA in the absence of chemical substance (yeast gene YOL082W, cultured two hours with substance): 1.5
- The level of expressed mRNA in the presence of chemical substance/The level of expressed mRNA in the absence of chemical substance (yeast gene YOL083W, cultured two hours with substance): 1.4
- The level of expressed mRNA in the presence of chemical substance/The level of expressed mRNA in the absence of chemical substance (yeast gene YOL117W, cultured two hours with substance): 1.7
- The level of expressed mRNA in the presence of chemical substance/The level of expressed mRNA in the absence of chemical substance (yeast gene YOL131W, cultured two hours with substance): 1.5
- The level of expressed mRNA in the presence of chemical substance/The level of expressed mRNA in the absence of chemical substance (yeast gene YOL150C, cultured two hours with substance): 1.0
- The level of expressed mRNA in the presence of chemical substance/The level of expressed mRNA in the absence of chemical substance (yeast gene YOL162W, cultured two hours with substance): 0.9
- The level of expressed mRNA in the presence of chemical substance/The level of expressed mRNA in the absence of chemical substance (yeast gene YOR019W, cultured two hours with substance): 1.4
- The level of expressed mRNA in the presence of chemical substance/The level of expressed mRNA in the absence of chemical substance (yeast gene YOR197W, cultured two hours with substance): 0.6
- The level of expressed mRNA in the presence of chemical substance/The level of expressed mRNA in the absence of chemical substance (yeast gene YOR215C, cultured two hours with substance): 1.8
- The level of expressed mRNA in the presence of chemical substance/The level of expressed mRNA in the absence of chemical substance (yeast gene YPL087W, cultured two hours with substance): 0.6
- The level of expressed mRNA in the presence of chemical substance/The level of expressed mRNA in the absence of chemical substance (yeast gene YPL196W, cultured two hours with substance): 1.5
- The level of expressed mRNA in the presence of chemical substance/The level of expressed mRNA in the absence of chemical substance (yeast gene YPL206C, cultured two hours with substance): 0.7
- The level of expressed mRNA in the presence of chemical substance/The level of expressed mRNA in the absence of chemical substance (yeast gene YPL222W, cultured two hours with substance): 1.2
- The level of expressed mRNA in the presence of chemical substance/The level of expressed mRNA in the absence of chemical substance (yeast gene YPR023C, cultured two hours with substance): 1.1
- The level of expressed mRNA in the presence of chemical substance/The level of expressed mRNA in the absence of chemical substance (yeast gene YPR151C, cultured two hours with substance): 1.3
